Reference: patent US4149007A, “C14 Phenyl-substituted derivatives of prostaglandin analogues” (Miles Laboratories, Inc., priority 1977, dated 1979)

How the values were obtained:
[1] = tested on: rat stomach fundus; experiment: Cascade assay: rat stomach fundus; type: cell-based; settings: in vitro, smooth muscle stimulant ED50 scored
Method: (§1) (A) effects on the rat stomach, rat colon, chick rectum, and rabbit aorta in vitro (cascade assay);
(§2) The smooth muscle stimulant effects of test compounds were determined simultaneously in four different tissues that are known to be reactive to naturally occurring prostaglandins. Segments of rat stomach fundus, rat colon, chick rectum and rabbit aortic strip were obtained as described by: Vane, J. R., Brit. J. Pharmacol., 12: 344 (1957); Regoli, D. and Vane, J. R., Brit. J. Pharmacol., 23: 351 (1964); Mann, M. and West, G. B., Brit. J. Pharmacol., 5: 173 (1950); and Furchgott, R. F. and Bhadrakom, R., J. Pharmacol. Exper. Ther., 108: 129 (1953). One end of each preparation was tied to the bottom of a 10 ml tissue chamber and the other to a force displacement transducer (Grass FT-03) for continuous tension recording. The stomach, colon, and rectum segments were stretched to an initial tension of 1 g, while the aortic strip was subjected to 4 g. All preparations were left undisturbed for 1 hour prior to testing. […]
(§3) Test compounds were diluted from stock solutions so as to administer quantities ranging from 0.0001 to 100,000 ng in a volume of 0.5 ml. […] Maximal increases in tension after each dose were measured and the results were used to plot dose-response curves. […]
(§4) Activity in each tissue was scored according to the following scale: […]

[2] = tested on: rat colon; experiment: Cascade assay: rat colon; type: cell-based; settings: in vitro, smooth muscle stimulant ED50 scored
Method: as §1, §2, §3, §4

[3] = tested on: chick rectum; experiment: Cascade assay: chick rectum; type: cell-based; settings: in vitro, smooth muscle stimulant ED50 scored
Method: as §1, §2, §3, §4

[4] = tested on: rabbit aortic strip; experiment: Cascade assay: rabbit aortic strip; type: cell-based; settings: in vitro, smooth muscle stimulant ED50 scored
Method: as §1, §2, §3, §4

[5] = tested on: rat uterus; experiment: Effects on the rat uterus in vitro; type: cell-based; settings: dose producing response 50% that of carbachol
Method: (B) effect on the rat uterus in vitro;
The uterine stimulant effect of test compounds was determined in segments of uterus obtained from rats (140-160 g) pretreated subcutaneously with 1 mg/kg of diethylstilbesterol 18 hours before the experiment. The tissues were placed in 10 ml chambers filled with de-Jalon solution at 29° C., were aerated and bubbled with 95% O2 and 5% CO2, and were prepared for isometric recording with force displacement transducers. Preparations were stretched to an initial tension of 1 g and were left undisturbed for 30 minutes. Carbachol (1 mcg/ml) was then added to the bath and a response was recorded. After a ten minute interval the carbachol procedure was repeated. Responses to increasing concentrations of a test compound (0.001 to 10 mcg/ml with one log intervals) were then recorded every 10 minutes. Preparations were washed four times after each response. All doses of compounds were administered in a 0.1 ml volume. Because it has been observed that the magnitude of the second response to carbachol (approximately 10% greater than the first) is close to the maximal response of the tissue, such value was taken as a measure of the sensitivity of a particular segment. Responses to each concentration of the test compound were expressed in terms of percentage of the second response to carbachol and the ED50 (dose producing a response 50% that of carbachol) was calculated graphically.
Activity was scored according to the following scale: […]

[6] = tested on: hypertensive rat; experiment: Effects on blood pressure in the hypertensive rat; type: in vivo; set-up: key: 0: Not significant at any time interval; 1: Significant at one time interval; 2: Significant at two time intervals; settings: 1 mg/kg intraperitoneal; 2, 4, 6 and 9 hours
Method: (I) effect on systolic blood pressure in the hypertensive rat
The acute anithypertensive activity of test compounds was determined in rats made hypertensive by the procedure of Grollman (Proc. Soc. Exper Biol. Med., 57: 102 [1944]). Female rats weighing between 60 and 100 g were anesthetized with ether, the right kidney approached through a flank retroperitoneal incision, decapsulated and tied with a figure-of-eight-ligature. The animals were left to recover and two weeks later were again anesthetized and the contralateral kidney removed. […]
Blood pressure was measured in the tail with an inflatable occluding cuff placed at the base of the extremity and a pulse detector located distally. The cuff was inflated to approximately 300 mmHg and was slowly deflated until pulsations appeared, indicating the level of systolic pressure; diastolic pressure was not recorded by this procedure. […] In all cases, three pressure readings were obtained in succession and mean values were calculated thereof.
Experiments were carried out in groups of five hypertensive rats in which systolic pressure was determined immediately before and 2, 4, 6 and 9 hours after intraperiotoneal administration of the test compound at a dose of 1 mg/kg. Drugs were diluted from stock solutions with phosphate buffer (Lee et al., Prostaglandins, 3: 29 [1973]), so as to inject this quantity in a volume of 1 ml/kg. […]

[7] = tested on: rat; experiment: Effects on gastric secretion in the rat; type: in vivo; settings: pylorus ligated, 1.5 mg/kg s.c. twice (total 3.0 mg/kg), 4 hours
Method: (F) effect on gastric secretion in the rat;
A procedure based on that described by Lipman, W. (J. Pharm. Pharmacol., 21: 335 [1968]) was used to assess the influence of test compounds on gastric secretion. Rats of one sex weighing 150 to 200 g were randomly divided into groups of six animals each and fasted for 48 hours previous to the experiments, water being available ad libitum. The animals were anesthetized with ether, the abdomen opened through a midline incision, and the pylorus ligated. Test compounds were diluted from stock solution so as to administer a dose of 1.5 mg/kg in a volume equivalent to 1 ml/kg. Subcutaneous injections were applied immediately after surgery and again 2 hours later, so that a total dose of 3.0 mg/kg was administered. Dilutions were made with phosphate buffer (pH 7.38) as recommended by Lee et al. (Prostaglandins, 3: 29 [1973]) in order to insure adequate stability of drugs at the subcutaneous depot. […]
Four hours after pyllric ligation the animals were killed with ether, the cardias ligated, and the stomachs removed. The volume of gastric secretion was measured and the contents centrifuged at 5000 rpm for 10 minutes. […]
Volume and total acid values of the treated group were compared with those of the controls […]. Antisecretory activity was scored according to the following scale: […]

[8] = tested on: human platelet; experiment: Inhibition of human platelet aggregation in vitro; type: cell-based; settings: human platelet rich plasma, collagen-induced
Method: (E) effect on human platelet aggregation in vitro; and
The ability of test compounds to inhibit platelet aggregation was determined by a modification of the turbidometric technique of Born, G. V. R. (Nature, 194: 927 [1962]). Blood was collected from human volunteers, who had not ingested aspirin or aspirin-containing products within the preceding two weeks, in heparinized containers and was allowed to settle for one (1) hour. The platelet rich plasma (prp) supernates were collected and pooled. Siliconized glassware was used throughout.
In a representative assay, 1.9 ml of PRP and 0.2 ml of test compound at the appropriate concentration ([…]), or 0.2 ml of distilled water (control procedure) were placed in sample cuvettes. The cuvettes were placed in a 37° C. incubation block for 15 minutes, and then in a spectrophotometer linked to a strip chart recorder. After 30-60 seconds, 0.2 ml of a solution, prepared by diluting a calf-skin collagen solution 1:9 with Tyrodes' Solution, was added to each cuvette. Platelet aggregation was evidenced by a decrease in optical density.
An ED50 value was then determined graphically.

[9] = tested on: growth hormone; settings: rats; cited from earlier work
[10] = tested on: man; settings: cited from earlier work
[11] = tested on: human platelet; settings: compared with compounds of Formula IV; cited from earlier work
[12] = tested on: adrenal glands; settings: hypophysectomized rats; cited from earlier work
[13] = tested on: smooth muscle of the vas deferens; settings: cited from earlier work
[14] = tested on: motor pathways in the central nervous system; settings: cited from earlier work
[15] = tested on: tracheal smooth muscle; settings: in vitro, most mammalian respiratory tracts; cited from earlier work
[16] = tested on: blood platelets; settings: in vitro; cited from earlier work
[17] = variety of mammals; cited from earlier work

COC(=O)CCCc1ccccc1CC1C(=O)CCC1/C=C(\c1ccccc1)[C@H](C)O (stereo partly drawn) [Example 4, Methyl 5,6,17,18,19,20-hexanor-4,7,-inter-o-phenylene-14-phenyl-15S-hydroxy-9-oxo-ent-prost-13E-en-1-oate]
Cascade, Stomache: activity value (ED50) [1]: 0 (>10000) | Cascade, Colon: activity value (ED50) [2]: 0 (>10000) | Cascade, Rectum: activity value (ED50) [3]: 0 (>10000) | Cascade, Aorta: activity value (ED50) [4]: 0 (>10000) | Rat Uterus: activity value (ED50) [5]: 0 (>10) | Blood Pressure Hypertensive Rat: activity value [6]: 0 | Gastric Secretion: activity value (% decrease in acidity) [7]: 0 (<26) | Platelet Aggregation: activity value (ED50) [8]: 1 (>0.1 and ≤1.0)

CCCCC[C@H](O)/C=C/[C@H]1C=CC(=O)[C@@H]1CCCCCCC(=O)O [PGA1]
synthesis of the growth hormone [9]: increases its synthesis | gastric secretion, man [10]: exhibits similar activity in man

CCCCC[C@H](O)/C=C/[C@H]1[C@H](O)CC(=O)[C@@H]1CCCCCCC(=O)O [PGE1]
inhibition of human platelet aggregation, comparison with natural prostaglandin [11]: displays similar activity | release of the growth hormone [9]: increase the release of the growth hormone | steroidogenesis in the adrenal glands [12]: stimulate stereoidogenesis in the adrenal glands | effect on smooth muscle of the vas deferens [13]: contracts the smooth muscle of the vas deferens | transmission along motor pathways in the central nervous system [14]: retards | effect on tracheal smooth muscle [15]: relax | aggregation of blood platelets [16]: inhibits aggregation of blood platelets in vitro

CCCCC[C@H](O)/C=C/[C@@H]1[C@@H](CCCCCCC(=O)O)[C@@H](O)C[C@H]1O [PGF1α]
luteolytic effect [17]: act as luteolytic factors | steroidogenesis in the adrenal glands [12]: stimulate stereoidogenesis in the adrenal glands
